Columns and labels:
[1] = tested on: Sprague-Dawley rats; assay: Changes in relevant physiological variables during treatment after severe CHI in rats; assay type: in vivo, rat; conditions: median average change over entire treatment period, % change of initial value; 0.5 mg/kg/min 10 min then 0.1 mg/kg/min 50 min, started 20 min after severe CHI; n = 10
Text: (§1) A clinically relevant rat model for traumatic brain injury was used to test the compounds according to the invention. This model mimics several clinical features of traumatic brain injury, such as increased ICP, decreased cerebral perfusion pressure, morphologic alterations including diffuse axonal injury, neuronal necrosis and contusion, impairment of autoregulation of cerebral blood flow and reduction of brain oxygenation and was applied for screening drugs with ICP-lowering effects. Trauma was induced in intubated, isoflurane anesthetized (1.5% isoflurane in a mixture of 30% O2 and 70% N2O) Sprague-Dawley rats (380-400 g) stereotaxically positioned on a table mounted on 4 springs. A 400 g steel cylinder, protected with a 9 mm diameter silicon disc, was dropped on the unprotected skull from a height of either 70 cm or 50 cm (respectively ‘severe’ and ‘moderate’ head injury). The impact area was centered between bregma and lamda. ICP was recorded using a Codman microsensor probe inserted in the parietal cortex. In both severe and moderate head injuries the ICP increased immediately after trauma and remained elevated for several days. The severe head injury mode was used for the evaluation of pharmacological effects immediately after trauma (screening procedure). When survival and recovery from anesthesia was envisaged, the moderate head injury mode was applied. In pharmacological studies, animals with a pathological ICP between 12.5 and 35 mm Hg were included. The changes in ICP, mean arterial blood pressure (MABP) and cerebral perfusion pressure CPP (=[…]) were expressed as percentage of the initial value at onset of the treatment. Screening procedure: On a weekly base, 4 treated groups of 3 rats were compared with 3 saline treated animals. Since conventional statistical methods require a larger amount of animals, a sequential procedure was used. Sequential methods operate in different stages. At each stage, a group of animals was selected as homogeneous as possible. Animals were randomly allocated to either drugs or saline. The procedure allowed to make the decision of rejecting the drug, accepting the drug as active or to continue with a new group of animals in a next stage. Given the biological relevant level of activity that must be detected, the expected fraction of false positive and negative results was known and fixed. A sequential two-sample grouped rank test was used. […] Despite the variability in the individual data, the procedure consistently accepted reference treatments such as mannitol as active, while controls were rejected.
Treatment was started at 20 min after severe head injury and involved administering a dose of 0.5 mg/kg/min during 10 minutes, followed by 0.1 mg/kg/min during 50 min.

[2] = tested on: Sprague-Dawley rats; assay: Continuous infusion of 0.1 mg/kg.min in the rat CHI model; assay type: in vivo
Text: as §1
The significant effect of compound 2 on MABP is much less pronounced when the compound is given at a continuous infusion of 0.1 mg/kg.min. […]

[3] = tested on: Sprague-Dawley rats; assay: Influence of anaesthesia on effects on ICP and MABP 24 h after moderate trauma; assay type: in vivo, rat; conditions: i.v. infusion 0.1 mg/kg.min 30 min, medians, n=6
Text: as §1
The effects of treatment with Compound 2 (i.v. infusion at a dose of 0.1 mg/kg.min during 30 min) at 24 h after moderate trauma were studied using different anesthetics (isoflurane, chloralhydrate, pentobarbital). […]

[4] = tested on: rat brain; assay: Near-infrared spectroscopy (NIRS) of the rat brain: brain hemoglobin concentration and oxygenation after moderate head injury; assay type: in vivo; conditions: 24 h after moderate head injury; i.v. 0.5 mg/kg.min 10 min then 0.1 mg/kg.min 45 min
Text: Near-infrared spectroscopy (NIRS) of the rat brain ‘in vivo’ allows to quantify non-invasively saturation of brain haemoglobin with oxygen (HbSat) and total brain haemoglobin concentration ([HbTot]). The latter is a measure for cerebral blood volume (CBV). Changes in the redox state of the mitochondrial enzyme cytochrome oxidase (CytOx), an indicator for tissue oxygenation, can also be monitored.
HbSat is not affected by compound 1 and the racemate (Comp. 1 and Comp. 2).

[5] = tested on: non-traumatised rats; assay: ICP, MABP and CPP in anaesthetised non-traumatised rats; assay type: in vivo, rat; conditions: i.v. 0.5 mg/kg/min during 10 minutes, followed by 0.1 mg/kg/min during 50 min
Experimental: The effect of Compound 2, Compound 1 and Racemate (comp. 1 and comp. 2) on ICP, MABP and CPP was tested in anaesthetised non-traumatised rats. The compounds were administered i.v. and the same dose was given as in traumatized rats (0.5 mg/kg/min during 10 minutes, followed by 0.1 mg/kg/min during 50 min).

[6] = tested on: traumatized rats; assay: Repeated application on elevated ICP in traumatized rats; assay type: in vivo, rat; conditions: i.v. 1 mg/kg/min during 10 min, repeated, FIG. 3
Experimental: Compound 1 was given 2 times with intermittent periods of 20 min at a i.v. dose of 1 mg/kg/min during 10 min, starting a first time 20 min after induction of severe head injury.
Mannitol was given i.v. in the same time windows as Compound 1 at a dose of 0.125 g/kg/min. The control animals received the solvent (containing 10% HP-β-CD, pH 4) only.
This effect is amplified after termination of each, infusion period.

[7] = tested on: Sprague-Dawley rats; assay: Dose response of a 10 min infusion in the rat CHI model; assay type: in vivo
Text: A clinically relevant rat model for traumatic brain injury was used to test the compounds according to the invention. This model mimics several clinical features of traumatic brain injury, such as increased ICP, decreased cerebral perfusion pressure, morphologic alterations including diffuse axonal injury, neuronal necrosis and contusion, impairment of autoregulation of cerebral blood flow and reduction of brain oxygenation and was applied for screening drugs with ICP-lowering effects. Trauma was induced in intubated, isoflurane anesthetized (1.5% isoflurane in a mixture of 30% O2 and 70% N2O) Sprague-Dawley rats (380-400 g) stereotaxically positioned on a table mounted on 4 springs. A 400 g steel cylinder, protected with a 9 mm diameter silicon disc, was dropped on the unprotected skull from a height of either 70 cm or 50 cm (respectively ‘severe’ and ‘moderate’ head injury). The impact area was centered between bregma and lamda. ICP was recorded using a Codman microsensor probe inserted in the parietal cortex. In both severe and moderate head injuries the ICP increased immediately after trauma and remained elevated for several days. The severe head injury mode was used for the evaluation of pharmacological effects immediately after trauma (screening procedure). When survival and recovery from anesthesia was envisaged, the moderate head injury mode was applied. In pharmacological studies, animals with a pathological ICP between 12.5 and 35 mm Hg were included. The changes in ICP, mean arterial blood pressure (MABP) and cerebral perfusion pressure CPP (=[…]) were expressed as percentage of the initial value at onset of the treatment. Screening procedure: On a weekly base, 4 treated groups of 3 rats were compared with 3 saline treated animals. Since conventional statistical methods require a larger amount of animals, a sequential procedure was used. Sequential methods operate in different stages. […] Given the biological relevant level of activity that must be detected, the expected fraction of false positive and negative results was known and fixed. […]

[8] = tested on: Rhesus monkeys; assay: ICP in anaesthetised non-traumatised Rhesus monkeys; assay type: in vivo, Rhesus monkey; conditions: i.v. infusion 2.5 and 5 mg/kg over 2.5 and 5 min (n=2/condition)
Experimental: The effect of Compound 1 on ICP was tested in a limited number of anaesthetised non-traumatised Rhesus monkeys with a i.v. infusion of a dose of 2.5 and 5 mg/kg over 2.5 and 5 min respectively (n=2/condition).

[9] = tested on: rabbits; assay: Cold lesion-induced rise of ICP in rabbits; assay type: in vivo, rabbit; conditions: rabbits one day after cryo-lesion
Experimental: Cryo-lesions were induced in adult rabbits to obtain a pathological ICP that is caused by tissue oedema. A 8 mm stainless steel rod was placed at predetermined coordinates on the exposed skull of deeply anaesthetised rabbits and cooled for […] with liquid nitrogen. One day later the animals were re-anaesthetised and ICP and blood pressure continuously recorded as described for the rat. After a stabilisation period of 15 min, Compound 1 was infused for 10 min at a dose of 2 mg/kg/min. Solvent (preclinical formulation containing 10% HP-β-CD, pH 4) was given for 10 min at a rate of […].

[10] = chloralhydrate 400 mg/kg i.p. anesthesia
[11] = pentobarbital 60 mg/kg i.p. anesthesia

**Q.** Which results are given for Cc1nc2n(C)c3ccccc3n2c(=O)c1CCN1CCC(C2c3ccccc3CCn3c2nc2ccccc23)CC1Cc1ccccc1 (single isomer, unassigned) [Compound 2, (A)[(2α,4β)(A)] 3-[2-(4-(11,12-dihydro-6H-benzimidazo [2,1-b][3]benzazepin-6-yl)-2-(phenylmethyl)-1-piperidinyl]ethyl]-2,10-dimethyl-pyrimido[1,2-a]benzimidazol-4(10H)-one]?
**A.** CPP (%) [1]: 24.2%; ETCO2 (%) [1]: −4.4%; Heart rate(%) [1]: −9.6%; ICP (%) [1]: −15.3%; MABP (%) [1]: 18.8%; Resp. rate(%) [1]: 6.6%; maximal reduction of ICP versus infusion preceded by loading dose of 5 mg/kg over 10 min [2]: comparable; time required to obtain maximal reduction of ICP (median) [2]: 30 min; increases in MABP observed ([2]; larger increases not observed): ≤ 20%; median MABP increase at the end of the infusion ([2]; n=6): 9%; ICP decreases to % of initial value [3, 10]: 75 % of initial value; MABP increases to % of initial value [3, 10]: 110 % of initial value; ICP decreases to % of initial value [3, 11]: 64 % of initial value; MABP increase up to % of initial value at the end of the infusion [3, 11]: 141 % of initial value; effect on saturation of brain haemoglobin with oxygen (HbSat) [4]: small but statistically significant reduction; effect on total brain haemoglobin concentration [HbTot] [4]: do not have a significant effect; effect on ICP, MABP and CPP [5]: comparable with those obtained in the traumatized animals

**Q.** With Cc1nc2n(C)c3ccccc3n2c(=O)c1CCN1CCC(C2c3ccccc3CCn3c2nc2ccccc23)CC1Cc1ccccc1 (single isomer, unassigned) [Compound 1, (B)[(2α,4β)(A)]3-[2-(4-(11,12-dihydro-6H-benzimidazo [2,1-b][3]benzazepin-6-yl)-2-(phenylmethyl)-1-piperidinyl]ethyl]-2,10-dimethyl-pyrimido[1,2-a]benzimidazol-4(10H)-one (E)-2-butenedioate (2:3) hydrate (1:1)] as the molecule, how does the “CPP (%)” value [1] read?
**A.** The value was −1.9%.

**Q.** And the “ETCO2 (%)” value [1]?
**A.** The value was 2.2%.

**Q.** What about the “Heart rate(%)” value [1] of the same molecule?
**A.** The value was −4.1%.

**Q.** And the “ICP (%)” value [1]?
**A.** Its value is −15.4%.

**Q.** What about the “MABP (%)” value [1] of the same molecule?
**A.** Its value is −3.6%.

**Q.** What about the “Resp. rate(%)” value [1] of the same molecule?
**A.** The value was 5.3%.

**Q.** What about the “effect on ICP during infusion” value ([6]; first 20 min after severe head injury) of the same molecule?
**A.** The value was “rapid reduction of ICP”.

**Q.** What about the “effect on ICP after termination of each infusion period” value [6] of the same molecule?
**A.** The value was “amplified”.

**Q.** What about the “effect on blood pressure” value [6] of the same molecule?
**A.** The value was “drops during Compound 1 treatment but is restored again after this episode”.

**Q.** And the “dose starting at which reduction in ICP is statistically significantly larger than in the solvent-treated group” value ([7]; 10 min infusion)?
**A.** The value was at least 1 mg/kg/min.

**Q.** And the “effect on ICP during treatment” value ([7]; 10 min infusion at 0.125, 0.25, 0.5, 1 and 2 mg/kg/min, FIG. 1)?
**A.** The value was “sustained dose-dependent decrease of ICP”.

**Q.** And the “effect on ICP in the 10 min period following the infusion” value ([7]; after 10 min infusion at 0.125-2 mg/kg/min, FIG. 2)?
**A.** The value was “highly significant dose-dependent effect on ICP remains present”.

**Q.** What about the “pattern of ICP and blood pressure changes during and after infusion” value [8] of the same molecule?
**A.** The value was “resembles the pattern of changes observed in cryo-lesioned rabbits”.

**Q.** And the “blood pressure during infusion” value ([9]; 2 mg/kg/min for 10 min)?
**A.** The value was “drops”.

**Q.** And the “effect on ICP during infusion” value ([9]; 2 mg/kg/min for 10 min, FIG. 4)?
**A.** The value was “no immediate decrease in ICP”.

**Q.** What about the “blood pressure when drug infusion is terminated” value ([9]; after 2 mg/kg/min for 10 min) of the same molecule?
**A.** Its value is “comes back to the initial value”.

**Q.** And the “effect on ICP when drug infusion is terminated” value ([9]; after 2 mg/kg/min for 10 min, persists during entire recording period)?
**A.** The value was “significant ICP reduction”.

**Q.** And the “effect on saturation of brain haemoglobin with oxygen (HbSat)” value [4]?
**A.** Its value is “not affected”.

**Q.** What about the “effect on total brain haemoglobin concentration [HbTot]” value [4] of the same molecule?
**A.** The value was “do not have a significant effect”.

**Q.** What about the “effect on ICP, MABP and CPP” value [5] of the same molecule?
**A.** Its value is “comparable with those obtained in the traumatized animals”.

Reference: patent US7476662B2, “Substituted tetracyclic imidazole derivatives, processes for their preparation, pharmaceutical compositions comprising them and their use as a medicine” (Janssen Pharmaceutica N.V., priority 2001, dated 2009)
